Assay results published in article PMC5007443, “TNIK inhibition abrogates colorectal cancer stemness” (Nature Communications, 2016).

Tests used:
TYRO3 = TYRO3 (Homo sapiens, UniProt Q06418); assay: Kinase selectivity profiling, Tyro3 receptor tyrosine kinase; assay type: biochemical; settings: read-out: Percentage inhibition of TYRO3
Procedure: (§1) The selectivity of compounds against a panel of 50 human protein kinases was assessed using a non-radiometric assay.

[1] = test system: TCF/LEF transcriptional activity; assay: TCF/LEF luciferase reporter in Wnt3a-treated HEK293 cells; assay type: cell-based, human; settings: Wnt3a-treated HEK293, 24 h
Procedure: HEK293 cells were transiently transfected with pGL4.49[luc2P/TCF-LEF-RE/Hygro] reporter vector (Promega) using Fugene HD Transfection Reagent (Promega; Fig. 2f). After overnight incubation, the cells were then treated with 10 mM LiCl (Sigma-Aldrich). Luciferase activity was measured using the ONE-Glo Luciferase Assay System (Promega). The assay was performed in triplicate and repeated at least two times.
In some experiments cells were treated with mouse Wnt3a (PeproTech) (Fig. 1c) or human Wnt3a (R&D Systems; Fig. 2f) before the measurements, as indicated in the figure legends.

HCT116 cells [2] = assay: PARP-1 cleavage, immunoblotting; assay type: cell-based, human; settings: HCT116, 1 μM, 24 or 48 h
Procedure: Protein samples were fractionated by SDS–PAGE and blotted onto Immobilon-P membranes (Millipore) as described previously. After incubation with the primary antibodies (listed in Supplementary Table 4) at 4 °C overnight, the blots were detected with the relevant horseradish peroxidase-conjugated anti-mouse or anti-rabbit IgG antibody (Cell Signaling Technology) and Western lighting ECL Pro (PerkinElmer). Signals were visualized with the LAS-4010 system (GE Healthcare). Uncropped versions of the blots in Figs 2e and 3f are shown in Supplementary Fig. 15.

[3] = test system: patient-derived colon cancer spheroid #19 xenograft; assay: Xenograft of patient-derived spheroid #19 in NOD/ShiJic-scid mice; assay type: in vivo, mouse; settings: NCB-0846 HCl oral 50 or 100 mg kg−1 BID, 6-days-on, 1-day-off
Excerpt: (§2) Patient-derived colorectal cancer spheroids were dissociated, resuspended in medium containing 50% Matrigel (Corning), and inoculated subcutaneously (#6; 1 × 10^4 cells per injection, #19; 1 × 10^5 cells per injection) into the flank of female NOD/ShiJic-scid mice (4-week-old females; CLEA Japan). When the tumour volume reached ∼200 mm^3, the mice were randomized according tumour volume (10 mice per group) and treatment was started.
(§3) Tumour volume was estimated based on the formula: (length × width^2)/2. The tumour volume (twice a week) and body weight (every day) of each mouse were recorded. The patient-derived spheroids and xenografts were established after obtaining informed consent from the donors.

SGK = SGK (Homo sapiens, UniProt O00141); assay: Kinase selectivity profiling, Serum/glucocorticoid regulated kinase; assay type: biochemical; settings: read-out: Percentage inhibition of SGK
Sequence of SGK (O00141 whole entry): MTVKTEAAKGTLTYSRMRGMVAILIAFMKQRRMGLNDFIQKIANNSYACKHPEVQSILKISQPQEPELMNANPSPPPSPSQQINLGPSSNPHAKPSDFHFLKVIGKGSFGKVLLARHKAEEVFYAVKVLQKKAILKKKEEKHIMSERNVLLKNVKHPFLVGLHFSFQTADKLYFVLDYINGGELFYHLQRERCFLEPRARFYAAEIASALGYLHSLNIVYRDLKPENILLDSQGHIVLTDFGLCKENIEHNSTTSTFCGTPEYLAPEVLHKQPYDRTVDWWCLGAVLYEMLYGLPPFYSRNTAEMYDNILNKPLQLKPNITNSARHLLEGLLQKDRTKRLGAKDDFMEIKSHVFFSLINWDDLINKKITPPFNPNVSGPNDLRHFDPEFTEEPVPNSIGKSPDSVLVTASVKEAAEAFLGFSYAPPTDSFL
Procedure: as §1

ABL = ABL (Homo sapiens, UniProt P00519); assay: Kinase selectivity profiling, c-Abl oncogene 1; assay type: biochemical; settings: read-out: Percentage inhibition of ABL
Sequence of ABL (P00519 whole entry): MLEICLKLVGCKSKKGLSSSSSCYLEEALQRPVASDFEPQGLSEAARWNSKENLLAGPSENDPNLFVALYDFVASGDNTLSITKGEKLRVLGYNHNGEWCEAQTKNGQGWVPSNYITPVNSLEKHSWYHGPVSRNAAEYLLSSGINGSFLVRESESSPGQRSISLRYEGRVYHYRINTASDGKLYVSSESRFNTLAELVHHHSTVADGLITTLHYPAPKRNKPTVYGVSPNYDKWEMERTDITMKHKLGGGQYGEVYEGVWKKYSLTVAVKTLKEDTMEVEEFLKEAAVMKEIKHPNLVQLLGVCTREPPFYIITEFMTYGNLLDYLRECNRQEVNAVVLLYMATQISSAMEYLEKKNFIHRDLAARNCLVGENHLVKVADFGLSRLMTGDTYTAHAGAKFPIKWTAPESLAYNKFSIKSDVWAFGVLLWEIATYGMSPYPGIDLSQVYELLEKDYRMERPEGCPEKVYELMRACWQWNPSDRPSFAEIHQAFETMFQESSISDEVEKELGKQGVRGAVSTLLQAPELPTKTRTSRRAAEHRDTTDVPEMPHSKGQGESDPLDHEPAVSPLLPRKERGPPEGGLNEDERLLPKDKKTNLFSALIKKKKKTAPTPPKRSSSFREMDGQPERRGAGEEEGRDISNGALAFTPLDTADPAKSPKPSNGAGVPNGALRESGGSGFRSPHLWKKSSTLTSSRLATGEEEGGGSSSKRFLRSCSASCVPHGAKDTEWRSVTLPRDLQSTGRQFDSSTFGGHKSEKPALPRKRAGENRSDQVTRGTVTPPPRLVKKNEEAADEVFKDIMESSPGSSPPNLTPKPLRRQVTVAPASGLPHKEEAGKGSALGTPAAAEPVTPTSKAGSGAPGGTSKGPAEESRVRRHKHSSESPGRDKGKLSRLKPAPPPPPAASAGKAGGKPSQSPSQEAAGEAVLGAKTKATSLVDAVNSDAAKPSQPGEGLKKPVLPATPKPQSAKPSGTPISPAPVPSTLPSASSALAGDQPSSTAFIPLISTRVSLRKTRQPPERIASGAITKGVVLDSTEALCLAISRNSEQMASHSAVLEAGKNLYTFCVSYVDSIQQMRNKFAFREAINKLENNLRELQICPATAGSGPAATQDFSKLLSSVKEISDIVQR
Procedure: as §1

CSK = CSK (Homo sapiens, UniProt P41240); assay: Kinase selectivity profiling, c-Src tyrosine kinase; assay type: biochemical; settings: read-out: Percentage inhibition of CSK
Sequence of CSK (P41240 whole entry): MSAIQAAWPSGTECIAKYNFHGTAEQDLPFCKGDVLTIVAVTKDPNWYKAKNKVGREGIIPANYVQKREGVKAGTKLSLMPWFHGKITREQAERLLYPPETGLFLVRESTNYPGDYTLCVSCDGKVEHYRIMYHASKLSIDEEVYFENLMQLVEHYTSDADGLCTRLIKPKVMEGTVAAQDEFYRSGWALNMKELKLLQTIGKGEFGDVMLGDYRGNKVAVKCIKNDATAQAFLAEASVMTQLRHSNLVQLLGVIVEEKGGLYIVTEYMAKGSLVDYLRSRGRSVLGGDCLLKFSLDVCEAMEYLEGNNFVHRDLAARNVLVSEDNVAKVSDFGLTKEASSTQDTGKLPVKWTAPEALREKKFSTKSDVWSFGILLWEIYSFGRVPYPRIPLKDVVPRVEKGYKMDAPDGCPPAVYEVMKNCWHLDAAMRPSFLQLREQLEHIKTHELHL
Procedure: as §1

PDX COX026 = assay: Patient-derived xenograft COX026 in Nu/Nu nude mice; assay type: in vivo, mouse; settings: COX026, NCB-0846 HCl oral 45 or 90 mg/kg BID, 5-day on, 2-day off
Procedure: Patient-derived colorectal cancer xenografts […] were established by Shanghai ChemPartner. Female Nu/Nu nude mice aged 5–6 weeks were implanted subcutaneously with the xenografts and randomized into three treatment groups (10 mice per group) based on the developed tumour volume (∼200 mm^3).
as §3

HCT116 xenografts = assay: HCT116 xenograft growth in BALB/c-nu/nu mice; assay type: in vivo, mouse; settings: oral, 40 or 80 mg kg−1 BID, 14 days
Procedure: Five million HCT116 cells suspended in medium containing 25% Matrigel (BD Biosciences) were inoculated into the subcutaneous tissues of 9-week-old female BALB/c nude mice. When the tumour volume reached ∼80 mm^3, the mice were randomized according to tumour volume (9 mice per group).
as §3

[4] = test system: patient-derived colon cancer spheroid #6 xenograft; assay: Xenograft of patient-derived spheroid #6 in NOD/ShiJic-scid mice; assay type: in vivo, mouse; settings: NCB-0846 HCl oral 50 or 100 mg kg−1 BID, 6-days-on, 1-day-off
Excerpt: as §2, §3

[5] = test system: Wnt target genes (AXIN2, MYC, CCND1) and TNIK; assay: RT-PCR of TNIK and Wnt target genes in HCT116 cells; assay type: cell-based, human; settings: HCT116, 24 h
Procedure: Total RNA was prepared with an RNeasy Mini Kit (Qiagen). cDNA was synthesized using SuperScript II reverse transcriptase (Thermo Fisher Scientific) or a High-Capacity cDNA reverse transcription kit (Thermo Fisher Scientific) and subjected to TaqMan gene expression assay using pre-designed primer and probe sets (listed in Supplementary Table 3). Amplification data measured as an increase in reporter fluorescence were collected using the StepOne Real-Time PCR System (Thermo Fisher Scientific). The relative mRNA expression level normalized to the internal control (human/mouse β-actin (ACTB/Actb1) gene) was calculated by the comparative threshold cycle (CT) method. Experiments were performed in triplicate and repeated at least two times.

HCT116 cells [6] = assay: Cell cycle analysis by flow cytometry; assay type: cell-based, human; settings: HCT116, 3 μM
Procedure: Cells were dissociated with Accutase, fixed with 70% EtOH at −20 °C, stained with Guava Cell Cycle reagent (Merck-Millipore) in accordance with the manufacturer's instructions, and analysed using a Guava easy Cyte HT flow cytometer (Merck-Millipore). Cell doublets were eliminated by doublet discrimination gating. Data were analyzed using FLOWJO version 10 software (Treestar; Fig. 3e). Experiments were performed in triplicate and repeated at least two times.

Apc^min/+ mice = assay: Intestinal tumorigenesis in Apc min/+ mice; assay type: in vivo, mouse; settings: NCB-0846 HCl oral BID 22.5, 45, 90 mg kg−1, 35 days
Procedure: The mouse gut was filled with 10% buffered formalin (Sigma-Aldrich) via the anus immediately after sacrifice and opened longitudinally. The number and maximum diameter/area of tumours were measured by stereoscopic microscopy as described previously. Differences at P values of<0.05 were considered to be statistically significant.

PBK = PBK (Homo sapiens, UniProt Q96KB5); assay: Kinase selectivity profiling, PDZ binding kinase; assay type: biochemical; settings: read-out: Percentage inhibition of PBK
Sequence of PBK (Q96KB5 whole entry): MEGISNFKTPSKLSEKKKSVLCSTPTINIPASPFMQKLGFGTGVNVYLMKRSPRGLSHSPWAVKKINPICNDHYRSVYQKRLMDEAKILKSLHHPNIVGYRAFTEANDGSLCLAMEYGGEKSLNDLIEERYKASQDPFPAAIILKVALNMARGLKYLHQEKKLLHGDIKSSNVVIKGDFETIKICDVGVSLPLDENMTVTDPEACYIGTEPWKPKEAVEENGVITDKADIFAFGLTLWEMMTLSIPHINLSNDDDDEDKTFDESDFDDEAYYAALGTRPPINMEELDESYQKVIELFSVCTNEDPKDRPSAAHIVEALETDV
Procedure: as §1

PKD2 = PKD2 (Homo sapiens, UniProt Q9BZL6); assay: Kinase selectivity profiling; assay type: biochemical; settings: read-out: Percentage inhibition of PKD2
Sequence of PKD2 (Q9BZL6 whole entry): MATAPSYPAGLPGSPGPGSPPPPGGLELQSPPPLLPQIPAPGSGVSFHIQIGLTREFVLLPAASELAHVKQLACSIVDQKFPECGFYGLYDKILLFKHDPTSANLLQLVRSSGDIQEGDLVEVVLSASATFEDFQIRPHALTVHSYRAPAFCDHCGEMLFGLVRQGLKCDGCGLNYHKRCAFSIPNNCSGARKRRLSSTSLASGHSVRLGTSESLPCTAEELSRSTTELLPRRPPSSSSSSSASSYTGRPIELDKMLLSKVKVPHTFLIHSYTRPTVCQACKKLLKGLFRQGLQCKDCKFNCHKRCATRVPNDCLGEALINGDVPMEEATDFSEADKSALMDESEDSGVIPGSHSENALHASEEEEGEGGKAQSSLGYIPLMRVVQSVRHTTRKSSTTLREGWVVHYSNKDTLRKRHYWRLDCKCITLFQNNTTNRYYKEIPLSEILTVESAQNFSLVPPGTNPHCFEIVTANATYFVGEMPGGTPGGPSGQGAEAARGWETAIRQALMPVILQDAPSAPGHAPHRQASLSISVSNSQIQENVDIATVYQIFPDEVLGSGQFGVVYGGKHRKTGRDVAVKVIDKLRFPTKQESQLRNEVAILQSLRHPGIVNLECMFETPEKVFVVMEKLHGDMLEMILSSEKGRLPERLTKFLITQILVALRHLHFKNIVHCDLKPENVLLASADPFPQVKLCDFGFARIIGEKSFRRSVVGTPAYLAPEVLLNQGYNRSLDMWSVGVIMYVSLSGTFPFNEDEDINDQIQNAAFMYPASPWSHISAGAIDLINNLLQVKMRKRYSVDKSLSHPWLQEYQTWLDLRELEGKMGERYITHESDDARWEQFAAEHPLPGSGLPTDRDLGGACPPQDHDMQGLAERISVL
Procedure: as §1

MST1 = MST1 (Homo sapiens, UniProt Q13043); assay: Kinase selectivity profiling; assay type: biochemical; settings: read-out: Percentage inhibition of MST1
Sequence of MST1 (Q13043 whole entry): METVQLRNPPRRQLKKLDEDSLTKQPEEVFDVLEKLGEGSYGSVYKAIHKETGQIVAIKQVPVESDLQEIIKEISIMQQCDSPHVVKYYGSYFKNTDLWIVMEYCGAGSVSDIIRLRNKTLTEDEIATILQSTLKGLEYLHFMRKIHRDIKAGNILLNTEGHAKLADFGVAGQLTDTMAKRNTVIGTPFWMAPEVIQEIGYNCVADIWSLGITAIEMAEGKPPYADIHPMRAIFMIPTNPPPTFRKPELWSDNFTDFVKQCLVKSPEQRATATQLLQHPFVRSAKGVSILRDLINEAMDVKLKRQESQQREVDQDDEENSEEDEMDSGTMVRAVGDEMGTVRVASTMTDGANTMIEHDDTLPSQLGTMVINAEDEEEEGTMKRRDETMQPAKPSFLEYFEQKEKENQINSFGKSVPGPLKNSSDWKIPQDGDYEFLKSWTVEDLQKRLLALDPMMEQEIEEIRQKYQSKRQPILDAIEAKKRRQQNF
Procedure: as §1

Sequence of TYRO3 (Q06418 41-890): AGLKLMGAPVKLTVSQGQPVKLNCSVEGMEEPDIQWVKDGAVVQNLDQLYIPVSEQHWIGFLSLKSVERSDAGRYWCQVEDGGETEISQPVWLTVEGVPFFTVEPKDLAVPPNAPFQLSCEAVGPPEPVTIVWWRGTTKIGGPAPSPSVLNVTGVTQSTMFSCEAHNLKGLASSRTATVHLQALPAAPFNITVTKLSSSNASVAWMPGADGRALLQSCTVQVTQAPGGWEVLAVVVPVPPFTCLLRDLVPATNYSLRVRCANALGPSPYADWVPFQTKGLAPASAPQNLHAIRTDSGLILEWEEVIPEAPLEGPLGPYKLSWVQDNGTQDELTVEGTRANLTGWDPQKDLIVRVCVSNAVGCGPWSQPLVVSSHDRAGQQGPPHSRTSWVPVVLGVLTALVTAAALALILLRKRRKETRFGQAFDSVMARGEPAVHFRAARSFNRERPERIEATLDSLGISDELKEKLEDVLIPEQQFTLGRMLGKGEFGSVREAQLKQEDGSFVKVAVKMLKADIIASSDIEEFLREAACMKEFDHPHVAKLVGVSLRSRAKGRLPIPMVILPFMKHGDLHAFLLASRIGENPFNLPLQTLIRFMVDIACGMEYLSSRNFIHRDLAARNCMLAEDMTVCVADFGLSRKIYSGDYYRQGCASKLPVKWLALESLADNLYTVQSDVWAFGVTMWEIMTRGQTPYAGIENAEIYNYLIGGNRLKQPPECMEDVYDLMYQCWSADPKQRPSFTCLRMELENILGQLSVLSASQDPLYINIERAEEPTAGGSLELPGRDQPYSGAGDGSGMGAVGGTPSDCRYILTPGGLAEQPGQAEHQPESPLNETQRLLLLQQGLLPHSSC

| Structure (SMILES) | inhibition at 0.1 µM (TYRO3) | inhibition at 0.1 µM (SGK) | inhibition at 0.1 µM (ABL) | inhibition at 0.1 µM (CSK) | >4N (%) (HCT116 cells [6]; 24 h) | G0/G1 (%) (HCT116 cells [6]; 24 h) | G2/M (%) (HCT116 cells [6]; 24 h) | S (%) (HCT116 cells [6]; 24 h) | SubG1 (%) (HCT116 cells [6]; 24 h) | >4N (%) (HCT116 cells [6]; 48 h) | G0/G1 (%) (HCT116 cells [6]; 48 h) | G2/M (%) (HCT116 cells [6]; 48 h) | S (%) (HCT116 cells [6]; 48 h) | SubG1 (%) (HCT116 cells [6]; 48 h) | inhibition at 0.1 µM (PBK) | inhibition at 0.1 µM (PKD2) | inhibition at 0.1 µM (MST1) | further results |
| --- | --- | --- | --- | --- | --- | --- | --- | --- | --- | --- | --- | --- | --- | --- | --- | --- | --- | --- |
| O[C@H]1CC[C@@H](Oc2cccc3cnc(Nc4ccc5nc[nH]c5c4)nc23)CC1 [NCB-0846, cis-4-(2-(3H-benzo[d]imidazol-5-ylamino)quinazolin-8-yloxy)cyclohexanol] | 48.9% | 14.7% | 16.9% | -1% | 6.1% | 20.6% | 30.6% | 14.1% | 28.6% | 3.1% | 18.3% | 20.1% | 11.1% | 47.4% | -3.9% | 18.8% | 57.8% | TCF/LEF transcriptional activity [1]: inhibited; Cleavage of PARP-1 (HCT116 cells [2]): induction of apoptosis; growth of tumours [3]: suppressed; growth of the PDXs (PDX COX026): significantly suppressed; growth of tumours (HCT116 xenografts): suppressed; growth of tumours [4]: suppressed; expression of AXIN2 gene [5]: reduced; expression of CCND1 gene [5]: not affected; expression of MYC gene [5]: reduced; expression of TNIK gene [5]: reduced; effect on colon tumorigenesis (Apc^min/+ mice): not statistically significant; multiplicity and dimensions of tumours in the small intestine (Apc^min/+ mice): dose dependently reduced |
| O[C@H]1CC[C@H](Oc2cccc3cnc(Nc4ccc5nc[nH]c5c4)nc23)CC1 [NCB-0970] | 23.9% | 6.6% | 3.9% | -4% | 9.1% | 24.5% | 35.8% | 10.7% | 20% | 8.5% | 21% | 40.3% | 10.7% | 19.5% | -5.8% | 1% | 14.3% | – |
